Active and inactive are the calls of the source. The calls are words filed in the database; no cut-off is given here.
Tests used:
[1] = Antiproliferative activity against human A2780/CDDP cells after 48 hrs by MTT assay
A549 = assay: cells; settings: Homo sapiens, A549, 48 h
A2780 [2] = assay: Induction of nitric oxide generation in human A2780 cells at 100 uM after 150 mins by Griess assay; format: functional
HeLa = assay: cells; settings: Homo sapiens, 48 h
HUVEC = assay: cells; settings: Homo sapiens, 48 h
Description: Antiproliferative activity against HUVEC after 48 hrs by MTT assay

A2780 [3] = assay: Antiproliferative activity against human A2780 cells after 48 hrs by MTT assay; settings: A2780, 48 h
[4] = Antiproliferative activity against human T29 cells after 48 hrs by MTT assay; settings: T29, 48 h

| IC50 (A549) | IC50 (HeLa) | IC50 (A2780 [3]) | SMILES | IC50 [1] | Activity (A2780 [2]) | IC50 (HUVEC) | IC50 [4] |
| --- | --- | --- | --- | --- | --- | --- | --- |
| 3250 nM | 1480 nM | 1350 nM | Cc1cc(=O)oc2cc(Sc3cccc(Cl)n3)ccc12 | 1000 nM | inactive | 5890 nM | – |
| 280 nM | 260 nM | 350 nM | Cc1cc(=O)oc2cc(OCCCOc3no[n+]([O-])c3S(=O)(=O)c3ccccc3)ccc12 | 360 nM | – | 680 nM | – |
| 1000 nM | 250 nM | 46 nM | Cc1cc(=O)oc2c(C)c(OCCOc3no[n+]([O-])c3S(=O)(=O)c3ccccc3)ccc12 | 330 nM | – | 97 nM | – |
| 6920 nM | 4310 nM | 3650 nM | Cc1cc(=O)oc2cc(OCC(=O)OCCOc3no[n+]([O-])c3S(=O)(=O)c3ccccc3)ccc12 | 7360 nM | – | > 20000 nM | – |
| 260 nM | 110 nM | 170 nM | O=c1ccc2ccc(OCCOc3no[n+]([O-])c3S(=O)(=O)c3ccccc3)cc2o1 | 200 nM | – | 370 nM | – |
| 11700 nM | > 20000 nM | 9350 nM | Cc1cc(=O)oc2c(C)c(Oc3no[n+]([O-])c3S(=O)(=O)c3ccccc3)ccc12 | > 20000 nM | – | > 20000 nM | – |
| > 20000 nM | > 20000 nM | > 20000 nM | O=C(COc1ccc2ccc(=O)oc2c1)OCCOc1no[n+]([O-])c1S(=O)(=O)c1ccccc1 | > 20000 nM | – | > 20000 nM | – |
| – | – | > 2000 nM | COCCOc1no[n+]([O-])c1S(=O)(=O)c1ccccc1 | – | – | – | > 2000 nM |
| 650 nM | 320 nM | 660 nM | Cc1cc(=O)oc2cc(OCCCCOc3no[n+]([O-])c3S(=O)(=O)c3ccccc3)ccc12 | 990 nM | – | 250 nM | – |
| 120 nM | 24 nM | 36 nM | Cc1cc(=O)oc2cc(SCCOc3no[n+]([O-])c3S(=O)(=O)c3ccccc3)ccc12 | 140 nM | – | 220 nM | – |
| 5550 nM | > 20000 nM | 2990 nM | Cc1cc(=O)oc2cc(Oc3no[n+]([O-])c3S(=O)(=O)c3ccccc3)ccc12 | 3150 nM | – | 5430 nM | – |
